{"source": "paper PMC5730592", "about": "“Parallelogram based approach for in vivo dose estimation of genotoxic metabolites in humans with relevance to reduction of animal experiments” (Scientific Reports, 2017)", "experiment": "In vivo dose (AUC) in rat calculated from measured Hb adduct levels after AA exposure", "conditions": "from Hb adduct levels", "experimental": "The in vivo dose or AUC of a compound in blood is the concentration integrated over time (Eq. 2).2 AUC=∫tC(t)dt A method to infer the AUC of an electrophilic compound or metabolite from measured Hb adduct levels (A) has been developed and established by our research group for quantitative monitoring of exposure in humans or for application in animal studies[1],[3]. When Hb adduct formation is measured a short time after a single acute exposure, or after incubation in vitro, AUC can be calculated using Eq. 3. This equation is based on A, and the second-order reaction rate constant (kNu) for the formation of an adduct to a nucleophilic site in Hb from the concerned electrophile.3 AUC=A/kNu\nFor calculating the daily AUC from a longer duration of exposure, the daily adduct level increments (a) have to be calculated considering the accumulation and elimination of adducts due to lifetime of the erythrocytes (t er). […] From continuous or subchronic exposure when the exposure time (t) is shorter than t er, the accumulated adduct level is calculated [a × t × (1 − t/2t er)][49].\nFor in vivo data on AUC of AA and of GA from AA exposure in rats, a study on short-term oral exposure of rats was used[24]. […] Blood samples were collected and AA- and GA-adducts to N-terminal valine in Hb were measured as described above, and recalculated to the daily increment of the adduct level. […]", "data": [{"smiles": "NC(=O)C1CO1", "note": "(racemic) [GA, rac-Glycidamide]", "values": [{"measurement": "ratio between species (rat-to-human) of AUC-GA per AUC-AA", "value": 2.3}]}]}
